In patent US20120071513A1, “Compositions and Their Use as Anti-Tumor Agents” (COMPASS PHARMACEUTICALS LLC, priority 2004, published 2012):

Key:
[1] = test system: A2780 human ovarian adenocarcinoma xenografts; assay: in vivo anti-tumor activity, A2780 xenografts; parameters: species or system mice; settings: 15 mg/kg, Day 19, positive control
Method: Body weights and tumor measurements were recorded three times weekly. Tumor burden (mg) was estimated from caliper measurements by the formula for the volume of a prolate ellipsoid assuming unit density as: Tumor burden (mg)=(L×W2)/2, where L and W are the respective orthogonal tumor length and width measurements (mm). The primary endpoints used to evaluate efficacy were study day 26 T/C values, complete and partial tumor responses, tumor growth delay, and the number of tumor-free survivors at the end of the study. T/C values were calculated by dividing the treated median tumor mass by the median control tumor mass and multiplying by 100. The USA National Cancer Institute (NCI) considers a compound which produces a % T/C value of 42 of less is active. Complete response (CR) is defined as a decrease in tumor mass to an undetectable size (<50 mg), and a partial response (PR) is defined as a ≧50% decrease in tumor mass from that at first treatment. […] Tumor Growth Delay (T-C) was also used to quantify efficacy. Tumor growth delay for this experiment was expressed as a T-C value, where T and C are the median times in days required for the treatment and control group tumors, respectively, to grow to a selected evaluation size, 750 mg. […]
Test animals were implanted subcutaneously on day 0 with 30 to 60 mg A2780 tumor fragments. […] Tumor mass on day 19 was analyzed by a single factor ANOVA. […]

[2] = test system: A375 human melanoma xenografts; assay: in vivo anti-tumor activity, A375 xenografts; parameters: species or system mice; settings: 30 mg/kg
Method: The in vivo anti-tumor activity of CP5017808 was evaluated against A375 human melanoma xenografts and ovarian carcinoma.
CP5017808 was dissolved with heat and sonication in a 1:1 mixture of absolute ethanol and CREMAPHOR™ equivalent to 20% of the final desired volume, and then brought to a final volume with 40% hydroxypropyl-β-cyclodextin in water. CP5017808 produced a fine suspension with a pH of 6.2.
Female NCr nu/nu mice (Charles River Laboratory) were used for the study. They were 5-6 weeks old on Day 1 of the experiment. The animals were fed Rodent Diet 5010 (LabDiet™) and water ad libitum. The mice were housed in Thoren™ microisolator caging with Bed-O'Cobs™ bedding. […]
Body weights and tumor measurements were recorded three times weekly. […] T/C values were calculated by dividing the treated median tumor mass by the median control tumor mass and multiplying by 100. […] Tumor Growth Delay (T-C) was also used to quantify efficacy. Tumor growth delay for this experiment was expressed as a T-C value, where T and C are the median times in days required for the treatment and control group tumors, respectively, to grow to a selected evaluation size, 750 mg.
The time for individual tumors to reach evaluation size, time to fold growth, and tumor volume doubling times were analyzed by a single factor ANOVA. […]

| Compound | % T/C value [1] [%] | tumor growth delay ([2]; evaluation size 750 mg) [days] | % T/C value ([2]; study day 26, positive control) [%] |
| --- | --- | --- | --- |
| CC(=O)O[C@H]1C(=O)[C@@]2(C)[C@H]([C@H](OC(=O)c3ccccc3)[C@]3(O)C[C@H](OC(=O)[C@H](O)[C@@H](NC(=O)c4ccccc4)c4ccccc4)C(C)=C1C3(C)C)[C@]1(OC(C)=O)CO[C@@H]1C[C@@H]2O [Taxol®] | 15 |  |  |
| CC(=O)O[C@@]12CO[C@@H]1C[C@H](O)[C@@]1(C)C(=O)[C@H](O)C3=C(C)[C@@H](OC(=O)[C@H](O)[C@@H](NC(=O)OC(C)(C)C)c4ccccc4)C[C@@](O)([C@@H](OC(=O)c4ccccc4)[C@H]21)C3(C)C [docetaxel] |  | 10 | 32 |
